Reference: patent US20250255867A1 (Kadmon Corporation, LLC, priority 2022, published 2025)

Assays:
[1] = Example 2: safety (AE, SAE, relative dose intensity); format: in vivo
Procedure: All responses were assessed by the study site investigators.

patients with cGVHD = assay: Example 1: corticosteroid and calcineurin inhibitor sparing; format: in vivo, human; details: for Participants who discontinued CNI, number / Participants who discontinued CNI, percent / Participants with reduction in CNI dose, number / Participants with reduction in CNI dose, percent: baseline up to EOT
Procedure: Corticosteroid sparing. […] The mean corticosteroid dose was reduced by 45%. The median time to corticosteroid therapy discontinuation was 29 weeks (range, 8-77 weeks).
Change from Baseline in Corticosteroids Dose. An EOT visit was performed within 3 days after the participant's last dose of study drug. Baseline value was defined as valid and last non-missing value obtained within 28 days prior to participant receiving first study medication. The mITT population was analyzed, with the ‘overall number of participants analyzed’=participants with available data for this outcome measure.
Change from Baseline in Calcineurin Inhibitor (CNI). Calcineurin inhibitors included systemic tacrolimus and cyclosporine. Number of participants who took CNI at Baseline and had reduction and discontinuation in CNI use as compared to Baseline during the study are reported in this outcome measure. EOT visit was performed within 3 days after the participant's last dose of study drug. Baseline value was defined as valid and last non-missing value obtained within 28 days prior to participant receiving first study medication.

[2] = Total N=54, listed as belumosudil

CC(C)NC(=O)COc1cccc(-c2nc(Nc3ccc4[nH]ncc4c3)c3ccccc3n2)c1 [Belumosudil, 2-{3-[4-(1H-indazol-5-ylamino)-2-quinazolinyl]phenoxy}-N-(propan-2-yl) acetamide]
Hypertension, Grade ≥3 ([1]; Total (N = 132)): 8 (6) n (%)
Hypoalbuminemia ([1]; Total (N = 132)): 4 (3) n (%)
LFT increased ([1]; Total (N = 132)): 1 (1) n (%)
Liver-related AEs ([1]; Total (N = 132)): 31 (24) n (%)
Muscle spasms, all grades ([1]; Total (N = 132)): 26 (20) n (%)
Nausea, all grades ([1]; Total (N = 132)): 41 (31) n (%)
Peripheral edema, all grades ([1]; Total (N = 132)): 30 (23) n (%)
Pneumonia, Grade ≥3 ([1]; Total (N = 132)): 10 (8) n (%)
SAEs ([1]; Total (N = 132)): 50 (38) n (%)
Transaminases increased ([1]; Total (N = 132)): 2 (2) n (%)
Upper respiratory tract infection, all grades ([1]; Total (N = 132)): 35 (27) n (%)
Vomiting, all grades ([1]; Total (N = 132)): 28 (21) n (%)
Deaths ([1]; Total (N = 132), six died during LTFU (>28 days after last dose)): 14 (11) n (%)
Discontinued because of overall AEs ([1]; in vivo): 21%
Discontinued because of possible drug-related AEs ([1]; in vivo): 12%
Grade 3 or 4 hyperglycemia ([1]; in vivo): 5%
Grade 3 or 4 hypertension ([1]; in vivo): 6%
Grade 3 or 4 pneumonia ([1]; in vivo): 8%
Grade ≥3 anemia ([1]; in vivo): 3%
Grade ≥3 cytopenias ([1]; in vivo): < 4%
Grade ≥3 neutropenia ([1]; in vivo): 2%
Grade ≥3 thrombocytopenia ([1]; in vivo): 2%
Increased GGT (liver-related AE) ([1]; in vivo): 12%
Median RDI ([1]; in vivo): 99.7%
SAE pneumonia, subjects ([1]; in vivo): 7%
Subjects who died during the study ([1]; in vivo): Fourteen
Subjects who received an RDI >95% ([1]; in vivo): Eighty-one
Subjects with >1 SAE ([1]; in vivo): Thirty eight
Subjects with increased liver function tests (LFTs) ([1]; in vivo): Twenty-four
Cases of Epstein-Barr viremia that required treatment ([1]; unrelated to belumosudil): 1 case
Cases of cytomegalovirus (CMV) reactivation ([1]; unrelated to belumosudil): 1 case
Cases of cytomegalovirus (CMV) reactivation ([1]; unrelated to belumosudil, listed as belumosudil): one
CS discontinuation (patients with cGVHD; Cohort 1 200 mg QD): 4 (24, 7 to 50) %
Mean percent change in CS dose from baseline, nonresponder (patients with cGVHD; Cohort 1 200 mg QD): −26%
Mean percent change in CS dose from baseline, overall (patients with cGVHD; Cohort 1 200 mg QD): −50%
Mean percent change in CS dose from baseline, responder (patients with cGVHD; Cohort 1 200 mg QD): −63%
Proportion with CS reduction (patients with cGVHD; Cohort 1 200 mg QD): 13 (76, 50 to %
Change From Baseline in Corticosteroids Dose, Mean (Standard Deviation) (patients with cGVHD; Cohort 1 200 mg QD, baseline to end of treatment): −0.110 (0.101) milligrams per kilogram per day
Participants who discontinued CNI, number (patients with cGVHD; Cohort 1: 200 mg QD): 0
Participants who discontinued CNI, percent (patients with cGVHD; Cohort 1: 200 mg QD): (0%)
Participants with reduction in CNI dose, number (patients with cGVHD; Cohort 1: 200 mg QD): 5
Participants with reduction in CNI dose, percent (patients with cGVHD; Cohort 1: 200 mg QD): (83%)
CS discontinuation (patients with cGVHD; Cohort 2 200 mg BID): 2 (13, 2 to 38) %
Mean percent change in CS dose from baseline, nonresponder (patients with cGVHD; Cohort 2 200 mg BID): −37%
Mean percent change in CS dose from baseline, overall (patients with cGVHD; Cohort 2 200 mg BID): −36%
Mean percent change in CS dose from baseline, responder (patients with cGVHD; Cohort 2 200 mg BID): −36%
Proportion with CS reduction (patients with cGVHD; Cohort 2 200 mg BID): 9 (56, 30 to 80) %
Participants who discontinued CNI, number (patients with cGVHD; Cohort 2: 200 mg BID): 1
Participants who discontinued CNI, percent (patients with cGVHD; Cohort 2: 200 mg BID): 17%
Participants with reduction in CNI dose, number (patients with cGVHD; Cohort 2: 200 mg BID): 5
Participants with reduction in CNI dose, percent (patients with cGVHD; Cohort 2: 200 mg BID): 83%
CS discontinuation (patients with cGVHD; Cohort 3 400 mg QD): 4 (19, 5 to 42) %
Mean percent change in CS dose from baseline, nonresponder (patients with cGVHD; Cohort 3 400 mg QD): −19%
Mean percent change in CS dose from baseline, overall (patients with cGVHD; Cohort 3 400 mg QD): −47%
Mean percent change in CS dose from baseline, responder (patients with cGVHD; Cohort 3 400 mg QD): −63%
Proportion with CS reduction (patients with cGVHD; Cohort 3 400 mg QD): 14 (67, 43 to %
Participants who discontinued CNI, number (patients with cGVHD; Cohort 3: 400 mg QD): 3
Participants who discontinued CNI, percent (patients with cGVHD; Cohort 3: 400 mg QD): 27%
Participants with reduction in CNI dose, number (patients with cGVHD; Cohort 3: 400 mg QD): 6
Participants with reduction in CNI dose, percent (patients with cGVHD; Cohort 3: 400 mg QD): 55%
Mean percent change in CS dose from baseline, nonresponder (patients with cGVHD; Total): −26%
Mean percent change in CS dose from baseline, overall (patients with cGVHD; Total): −45%
Mean percent change in CS dose from baseline, responder (patients with cGVHD; Total): −55%
CS discontinuation (patients with cGVHD; Total N=54): Approximately 20%
CS discontinuation (patients with cGVHD; Total N=54, listed as KD025): 10 (19, 9 to 31) %
Proportion with CS reduction (patients with cGVHD; Total N=54, listed as KD025): 36 (67, 53 to %
CS discontinuation (patients with cGVHD; [2]): 19%
Proportion with CS reduction (patients with cGVHD; [2]): 67%
Mean corticosteroid dose reduction (patients with cGVHD; all patients): 45%
Mean corticosteroid dose reduction (patients with cGVHD; nonresponders): 26%
Median time to corticosteroid therapy discontinuation (patients with cGVHD; range, 8-77 weeks): 29 weeks
Mean corticosteroid dose reduction (patients with cGVHD; responders): 55%
